# Experimental data reported in US20240034731A1, “AZA-QUINAZOLINE COMPOUNDS AND METHODS OF USE” (Iambic Therapeutics, Inc., priority 2022, published 2024).
# Experiments:
# OVCAR-3 cells = experiment: Cell Growth Inhibition, OVCAR-3 (CellTiterGlo, 6 days); format: cell-based; details: Homo sapiens, 144 h, OVCAR-3, 6-day treatment
# Procedure, shortened: (§1)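 MCF-7 (ER+ breast adenocarcinoma) or CCNE1-amplified OVCAR-3 cells, 500/well in RPMI with 10% FBS, treated with half-log dilutions typically 10-10,000 nM for 6 days at 37 °C. CellTiterGlo 2.0 luminescence gave % growth inhibition versus control; IC50 by four-parameter variable-slope fit.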
# CDK2/Cyclin E1 = CDK2/Cyclin E1 (Homo sapiens (Human), UniProt P24941); experiment: CDK2/Cyclin E1 Full length ADP-Glo Kinase Assay; format: biochemical; details: 20 uM ATP, read-out: CDK2/ CyclinE1 IC50
# Procedure, shortened: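 Full-length human CDK2/cyclin E1 was preincubated 30 min at room temperature with inhibitor, then reacted 90 min with ATP-containing substrate solution. ADP formed was measured by ADP-Glo luminescence; IC50 from 4-parameter fit of fractional velocity versus inhibitor concentration.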
# CDK1/Cyclin B1 = CDK1/Cyclin B1 (Homo sapiens (Human), UniProt P06493); experiment: CDK1/Cyclin B1 ADP-Glo Kinase Assay; format: biochemical; details: ADP-Glo, 80 uM ATP; read-out: CDK1 Cyclin B1 IC50
# Procedure, shortened: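 Enzyme and inhibitor pre-incubated 30 min at room temperature before ATP/substrate addition; reaction run 90 min at room temperature. ADP formed measured by ADP-Glo luminescence; IC50 from a 4-parameter fit of fractional velocity versus inhibitor concentration.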
# CDK4/Cyclin D1 = CDK4/Cyclin D1 (Homo sapiens (Human), UniProt P11802); experiment: CDK4/Cyclin D1 CHEF Assay (AQT0258 peptide); format: biochemical; details: 200 uM ATP, read-out: CDK4/ CyclinD1 AQT IC50
# Procedure, shortened: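 Sox-labelled peptide AQT0258 phosphorylation read as chelation-enhanced fluorescence (ex 360/em 485 nm) with Mg(II). Enzyme preincubated with inhibitor 30 min at 22°C, substrate added, 3 h at 22°C; IC50 from four-parameter fit of fractional velocity versus inhibitor concentration.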
# CDK6/Cyclin D3 = CDK6/Cyclin D3 (Homo sapiens (Human), UniProt Q00534); experiment: CDK6/Cyclin D3 ADP-Glo Kinase Assay; format: biochemical; details: 100 uM ATP, read-out: CDK6/ CyclinD3 IC50
# Procedure, shortened: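 Enzyme and inhibitor were pre-incubated for 30 min at room temperature before ATP/substrate was added. The kinase reaction ran 90 min at room temperature, and ADP formed was detected by ADP-Glo luminescence. IC50 was fitted with a 4-parameter equation to fractional velocity versus inhibitor concentration.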
# MCF-7 cells = experiment: Cell Growth Inhibition, MCF-7 (CellTiterGlo, 6 days); format: cell-based; details: Homo sapiens, MCF7, 144 h, MCF-7, 6-day treatment
# Procedure, shortened: as §1
# Chain of CDK1/Cyclin B1 (P06493 whole entry): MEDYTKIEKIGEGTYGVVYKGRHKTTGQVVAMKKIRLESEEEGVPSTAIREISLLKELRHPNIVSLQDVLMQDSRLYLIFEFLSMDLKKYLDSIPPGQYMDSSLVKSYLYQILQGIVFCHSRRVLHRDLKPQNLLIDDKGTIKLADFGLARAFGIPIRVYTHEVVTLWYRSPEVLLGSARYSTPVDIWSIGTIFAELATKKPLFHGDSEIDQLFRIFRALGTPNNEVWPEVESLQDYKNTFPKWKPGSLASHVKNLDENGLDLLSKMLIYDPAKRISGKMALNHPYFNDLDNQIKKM
# Chain of CDK1/Cyclin B1 (P14635 whole entry partner): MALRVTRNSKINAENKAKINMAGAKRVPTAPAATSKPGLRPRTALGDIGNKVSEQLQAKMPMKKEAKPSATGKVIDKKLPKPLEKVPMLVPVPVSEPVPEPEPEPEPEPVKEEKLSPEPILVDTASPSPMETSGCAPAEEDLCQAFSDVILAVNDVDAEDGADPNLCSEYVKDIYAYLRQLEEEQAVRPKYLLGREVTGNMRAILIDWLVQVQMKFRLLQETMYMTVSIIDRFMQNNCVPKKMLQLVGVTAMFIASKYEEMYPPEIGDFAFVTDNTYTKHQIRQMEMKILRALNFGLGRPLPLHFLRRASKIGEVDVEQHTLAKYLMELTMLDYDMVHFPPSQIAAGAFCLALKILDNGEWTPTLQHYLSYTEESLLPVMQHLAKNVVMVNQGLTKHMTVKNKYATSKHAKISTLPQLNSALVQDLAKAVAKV
# Chain of CDK4/Cyclin D1 (P11802 whole entry): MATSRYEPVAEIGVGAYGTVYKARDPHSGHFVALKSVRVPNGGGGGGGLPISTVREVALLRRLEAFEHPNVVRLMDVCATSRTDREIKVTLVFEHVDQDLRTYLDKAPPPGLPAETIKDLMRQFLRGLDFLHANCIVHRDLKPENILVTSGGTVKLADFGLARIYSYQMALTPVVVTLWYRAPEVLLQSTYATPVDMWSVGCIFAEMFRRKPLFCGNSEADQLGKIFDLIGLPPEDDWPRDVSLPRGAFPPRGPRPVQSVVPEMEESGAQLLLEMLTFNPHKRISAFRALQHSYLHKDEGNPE
# Chain of CDK4/Cyclin D1 (P24385 whole entry partner): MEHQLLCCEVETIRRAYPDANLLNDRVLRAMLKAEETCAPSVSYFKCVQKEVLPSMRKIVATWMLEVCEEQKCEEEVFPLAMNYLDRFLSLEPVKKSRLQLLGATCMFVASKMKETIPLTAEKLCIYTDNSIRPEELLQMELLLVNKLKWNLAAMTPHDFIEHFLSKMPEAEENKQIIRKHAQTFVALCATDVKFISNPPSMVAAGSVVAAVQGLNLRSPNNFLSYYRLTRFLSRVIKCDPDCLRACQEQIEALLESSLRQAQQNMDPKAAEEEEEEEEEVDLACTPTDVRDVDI
# Chain of CDK6/Cyclin D3 (Q00534 whole entry): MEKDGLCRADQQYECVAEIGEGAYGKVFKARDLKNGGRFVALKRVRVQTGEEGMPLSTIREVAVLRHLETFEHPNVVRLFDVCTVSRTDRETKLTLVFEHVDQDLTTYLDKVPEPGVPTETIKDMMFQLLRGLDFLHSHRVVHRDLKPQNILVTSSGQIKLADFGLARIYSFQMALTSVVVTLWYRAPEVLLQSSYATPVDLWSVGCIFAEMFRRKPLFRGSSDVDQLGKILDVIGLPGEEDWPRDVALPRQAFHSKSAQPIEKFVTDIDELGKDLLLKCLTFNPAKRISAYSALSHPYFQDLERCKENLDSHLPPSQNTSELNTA
# Chain of CDK6/Cyclin D3 (P30281 whole entry partner): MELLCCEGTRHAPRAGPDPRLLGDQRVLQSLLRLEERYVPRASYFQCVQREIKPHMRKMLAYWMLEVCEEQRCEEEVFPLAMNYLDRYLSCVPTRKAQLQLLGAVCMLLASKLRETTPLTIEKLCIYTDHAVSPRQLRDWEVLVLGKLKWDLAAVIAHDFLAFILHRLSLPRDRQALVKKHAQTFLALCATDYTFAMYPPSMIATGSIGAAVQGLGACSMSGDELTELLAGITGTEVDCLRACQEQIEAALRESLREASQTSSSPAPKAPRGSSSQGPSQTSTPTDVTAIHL
SMILES,IC50 (OVCAR-3 cells) [nM],IC50 (CDK2/Cyclin E1) [nM],IC50 (CDK1/Cyclin B1) [nM],IC50 (CDK4/Cyclin D1) [nM],IC50 (CDK6/Cyclin D3) [nM],IC50 (MCF-7 cells) [nM]
"Cc1cc2cnc(NC3CCN(S(=O)(=O)C4CC4)CC3)nc2c(N2CC(OC3CC3)C2)n1 [Compound 57, 8-(3-cyclopropoxyazetidin-1-yl)-N-(1-(cyclopropylsulfonyl)piperidin-4-yl)-6-methylpyrido[3,4-d]pyrimidin-2-amine]",> 2000,< 200,200 to 500,< 200,< 200,> 2000
"CCS(=O)(=O)N1CCC(Nc2ncc3cc(C)nc(N4CC(F)(F)C5(CNC5)C4)c3n2)CC1 [Compound 95, 8-(8,8-difluoro-2,6-diazaspiro[3.4]octan-6-yl)-N-(1-(ethylsulfonyl)piperidin-4-yl)-6-methylpyrido[3,4-d]pyrimidin-2-amine]",500 to 2000,< 200,< 200,< 200,< 200,500 to 2000
"Cc1cc2cnc(NC3CCN(S(=O)(=O)c4ccn(C)n4)CC3)nc2c(N2CC(F)(F)C3(CNC3)C2)n1 [Compound 94, 8-(8,8-difluoro-2,6-diazaspiro[3.4]octan-6-yl)-6-methyl-N-(1-((1-methyl-1H-pyrazol-3-yl)sulfonyl)piperidin-4-yl)pyrido[3,4-d]pyrimidin-2-amine]",200 to 500,< 200,< 200,< 200,< 200,500 to 2000
"Cc1cc2cnc(NC3CCN(S(=O)(=O)c4cnn(C)c4)CC3)nc2c(N2CC3(CCNCC3(F)F)C2)n1 [Compound 87, 8-(5,5-difluoro-2,7-diazaspiro[3.5]nonan-2-yl)-6-methyl-N-(1-((1-methyl-1H-pyrazol-4-yl)sulfonyl)piperidin-4-yl)pyrido[3,4-d]pyrimidin-2-amine]",200 to 500,< 200,< 200,< 200,< 200,500 to 2000
"Cc1cc2cnc(Nc3ccc4c(c3)CN(C3CC3)C4)nc2c(N2CC3(CCNC3)C2)n1 [Compound 47, N-(2-cyclopropylisoindolin-5-yl)-6-methyl-8-(2,6-diazaspiro[3.4]octan-2-yl)pyrido[3,4-d]pyrimidin-2-amine]",500 to 2000,< 200,500 to 2000,< 200,< 200,500 to 2000
"COC1CC2(C1)CN(c1nc(C)cc3cnc(NC4CCN(S(=O)(=O)C5CC5)CC4)nc13)C2 [Compound 71, N-(1-(cyclopropylsulfonyl)piperidin-4-yl)-8-(6-methoxy-2-azaspiro[3.3]heptan-2-yl)-6-methylpyrido[3,4-d]pyrimidin-2-amine]",> 2000,< 200,200 to 500,< 200,< 200,> 2000
"Cc1cc2cnc(Nc3cnn(CC4(N(C)C)CC4)c3)nc2c(N2CCC(C#N)(C3CC3)C2)n1 (stereo not drawn) [Compound 38, 3-cyclopropyl-1-(2-((1-((1-(dimethylamino)cyclopropyl)methyl)-1H-pyrazol-4-yl)amino)-6-methylpyrido[3,4-d]pyrimidin-8-yl)pyrrolidine-3-carbonitrile]",500 to 2000,< 200,> 2000,500 to 2000,> 2000,> 2000
"Cc1cc2cnc(NC3CCN(S(=O)(=O)C4CC4)CC3)nc2c(N2CCC(OC(F)F)C2)n1 (stereo not drawn) [Compound 58, N-(1-(cyclopropylsulfonyl)piperidin-4-yl)-8-(3-(difluoromethoxy)pyrrolidin-1-yl)-6-methylpyrido[3,4-d]pyrimidin-2-amine]",500 to 2000,< 200,< 200,< 200,< 200,500 to 2000
"Cc1cc2cnc(NC3CCN(S(C)(=O)=O)CC3)nc2c(N2CCC3(CC3)C2)n1 [Compound 54, 6-methyl-N-(1-(methylsulfonyl)piperidin-4-yl)-8-(5-azaspiro[2.4]heptan-5-yl)pyrido[3,4-d]pyrimidin-2-amine]",500 to 2000,< 200,< 200,< 200,< 200,> 2000
